Assay results published in patent publication US12303547B2, “Compound, use, pharmaceutical composition, method of diagnosis, method of treatment, and method of transportation and/or internalization of a compound into eukaryotic cells” (priority 2018, dated 2025).
Where no end group is shown, it is not given here.

Key:
[1] = tested on: MIA PaCa-2 pancreatic adenocarcinoma cells; assay: MTT cell viability assay, MIA PaCa-2; assay type: cell-based, human; details: MIA PaCa-2, 48 h, increasing concentrations; Amblyomin-X 20 μM
Text: (§1) Human melanomas (SK-MEL-28), pancreatic adenocarcinomas (MIA-PaCa-2) and murine renal adenocarcinoma cells (RENCA) were obtained and cultured according to the instructions of the American Type Culture Collection (ATCC, Manassas, VA). Human dermal fibroblast cells (HDFa) were obtained from Invitrogen. Endothelial cells were obtained from human umbilical veins (HUVECs), as previously described^11. The study received prior approval from the Research Ethics Committee and the free and informed consent form was obtained from female donors. HUVECs were seeded in T75 flasks previously covered with 2% gelatin and cultured in RPMI medium, supplemented with 10% fetal bovine serum, L-glutamine (2 mM), streptomycin sulfate ([…]), penicillin (100 U/ml) sodium pyruvate ([…]), 2-mercaptoethanol ([…]), ECGF ([…]) and heparin (45 μg/ml), pH 7.4. In all experiments, HUVEC were used in the second or third passages. All cell lines were routinely cultured in a humidified 5% CO2 incubator at 37° C.
(§2) Cell viability was measured by the 3-(4,5-dimethylthiazol-2-yl)-2,5-diphenyltetrazolium bromide (MTT) assay. […] Afterwards, the medium was discarded, the dark blue crystalline formazan product was dissolved in […] of dimethyl sulfoxide (DMSO), and the absorbance was measured in a Spectra MAX 190 microplate reader (Molecular Devices, Sunnyvale, USA) at 540 nm.

[2] = tested on: HDFa; assay: Cell uptake study (confocal), HDFa; assay type: cell-based, human; details: 4 h, preliminary experiments
Text: (§3) The compound of the invention (C-ter) was chemically coupled with the amine reactive dye (Alexa fluor 488 […] tetra fluorophenyl ester (TFP)) using the Microscale Alexa Fluor® 488 Protein Labeling kit (Molecular Probes), following the manufacturer's instructions. Other entities (Amblyomin-X and its fragment called Kunitz domain) were also modified as described above, for comparative analysis.
(§4) The dye-conjugated protein was named 488-Amblyomin-X. Briefly, cells (10^4 cells/well) were seeded into 96-well plates. Once stabilized, the culture medium was replaced and cells were incubated with 488-Amblyomin-X (20 μM) at 37° C. for 2 h, 4 h and 24 h. The cells were then incubated with Alexa Fluor 555 transferrin (100 μg/ml), the cholera toxin B subunit Alexa Fluor 555 (50 μg/ml) or Alexa Fluor 555 dextran (1 mg/ml) in binding medium to 37° C. for 20 min. Nuclei were stained with Hoechst 332. Then, green and red fluorescence were monitored using a Molecular Devices ImageXpress Micro Confocal plate scanning microscope (Molecular Devices, Sunnyvale, CA) or using LSM 510 Meta confocal microscope (Zeiss, Jena, Germany) followed by evaluation of overlap between 488-Amblyomin-X and endocytosis markers using MetaXpress software (Molecular Devices, Sunnyvale, CA).

[3] = tested on: human umbilical vein endothelial cells (HUVEC); assay: MTT cell viability assay, HUVEC; assay type: cell-based; details: 48 h, preliminary results
Text: as §1, §2

[4] = tested on: SK-MEL-28 human melanoma cells; assay: MTT cell viability assay, SK-MEL-28; assay type: cell-based; details: SK-MEL-28, 48 h, increasing concentrations; Amblyomin-X 20 μM
Text: as §1, §2

[5] = tested on: SK-MEL-28; assay: Cell uptake study with Alexa Fluor 488 labelled molecules, SK-MEL-28; assay type: cell-based, human; details: for Uptake by tumor cells: Alexa Fluor 488 labelled
Text: as §3
as §4, with “Once stabilized, the culture medium was replaced and cells were incubated with 488-Amblyomin-X (20 μM) at 37° C. for 2 h, 4 h and 24 h.” left out

[6] = tested on: murine renal adenocarcinoma cells (RENCA); assay: MTT cell viability assay, RENCA; assay type: cell-based; details: 48 h, preliminary results
Text: as §1, §2

[7] = tested on: HUVEC; assay: Cell uptake study (confocal), HUVEC; assay type: cell-based, human; details: 4 h, preliminary experiments
Text: as §3, §4

[8] = tested on: Tumor cell lines; assay: Co-localization with endocytosis and intracellular markers; assay type: cell-based, human
Experimental: as §4
Tumor cells were cultured in 96-well plates (10^4 cells/well) and treated with 488-Amblyomin-X (20 μM) to indicate times. Cells were washed twice with PHEM-glycine buffer (2 mM HEPES, 10 mM EGTA, 2 mM MgCl2, 60 mM Pipes, 100 mM glycine, pH 6.9) and fixed with 4% paraformaldehyde for 3 h at room temperature. The washing step was repeated and then the cells were incubated with a cell permeabilizing solution (0.1% Tween in PHEM) for 5 minutes at room temperature. Samples were washed and incubated with 1% BSA blocking solution for 30 minutes at room temperature. Next, the primary antibody was incubated overnight at 4° C.: (i) caveolin-1 anti-human mouse 1:100 (Santa Cruz Biotechnology, Inc., USA); (ii) 1:50 anti-human LAMP-2 rabbit (Abcam). […] Next, green and red fluorescence were monitored by a Molecular Devices ImageXpress Micro Confocal Plate Scanning Microscope (Molecular Devices, Sunnyvale, CA) followed by evaluation of overlap between 488-Amblyomin-X and endocytosis markers using MetaXpress software (Molecular Devices, Sunnyvale, CA) or vesicle interactions by Imaris software.

[9] = tested on: SK-MEL-28 cells; assay: Role of PS in uptake (Na3VO4 or Annexin V pretreatment); assay type: cell-based, human
Experimental: To investigate the role of PS in C-ter uptake, cells were pretreated with Annexin V (5 μg/mL) or Na3VO4 (25 μM) and then incubated with fluorochrome-conjugated molecules for 4 hours.

[10] = tested on: Mia PaCa-2; assay: Cell uptake study with Alexa Fluor 488 labelled molecules, Mia PaCa-2; assay type: cell-based, human; details: for Uptake by tumor cells: Alexa Fluor 488 labelled
Text: as §3
as §4, with “Once stabilized, the culture medium was replaced and cells were incubated with 488-Amblyomin-X (20 μM) at 37° C. for 2 h, 4 h and 24 h.” left out

[11] = tested on: human dermal fibroblasts (HDFa); assay: MTT cell viability assay, HDFa; assay type: cell-based; details: 48 h, preliminary results
Text: as §1, §2

[12] = tested on: HUVECs; assay: Charge delivery capacity, uptake of Alexa 488 labelled peptides by HUVECs (HCS); assay type: cell-based, human; details: for uptake by HUVECs (HCS): 10 μM; for detection within HUVECs (HCS): after 4 h, 0.5, 1, 10 and 20 μM
Experimental: Endothelial cell culture was obtained from umbilical cords by digestion of umbilical cord veins with collagenase as described previously (19) with some modifications (20). Endothelial cells between the first and third passage were used for all experiments. Cells were seeded in 96-well culture plates (Advance, Greiner), special for immunofluorescence, at a density of 8×10^3 cells/well pre-coated with 2% (w/v) gelatin in EGM®-2 BulletKit® medium for HUVECs (Lonza, CC-3162) allowed to seed at 37° C. in a humidified atmosphere of 5% CO2. Cells were treated and incubated in RPMI medium containing 1% fetal bovine serum (FBS) and Alexa-Fluor 488 labeled peptides (C-ter/Seq ID No 1, P4/Seq ID No 2, or P4-Cter/Seq ID No 3) at different concentrations and times. After treatment, the cells were fixed with 4% paraformaldehyde and analyzed in ImageXpress Micro Confocal High-Content Imaging (HCS, Molecular Devices) in Widefield mode and the number of vesicles containing the peptides in the cells was quantified using MetaXpress High-Content Image Acquisition and Analysis Software (Molecular Devices).
Peptides Cter, P4 and P4-C-ter were labeled with cell-impermeable Alexa Fluor 488. The capacity of P4 and P4-Cter peptides bound to Alexa 488 by HUVECs at 1 h, 2 h and 4 h was analyzed using different concentrations: 0.5 μM, 1 μM, 10 μM and 20 μM (FIG. 9). This was compared with uptake of C-ter peptide linked to Alexa 488 (concentration of 0.5 μM, 1 μM, 10 μM and 20 μM) after 4 hours, as shown in previous experiments for SK-MEL-28 (FIG. 3).

C-ter: polypeptide of SEQ ID No. 1, 50 amino acids, carboxy-terminal end of Amblyomin-X, prepared by chemical synthesis (EEQTHFHFESPKLISFKVQDYWILNDIMKKNLTGISLKSEEEDADSGEID)
cell viability (MTT) [1]: no change was observed
uptake by non-tumor cells [2]: uptake by these cells
cell viability (MTT) [3]: no change was observed
cell viability (MTT) [4]: no change was observed
cells positive for nuclear translocation ([5]; SK-MEL-28): few cells were positive
uptake by cells (green fluorescence, confocal) ([5]; SK-MEL-28, 20 μM, 4 h, Alexa Fluor 488 complexed): taken up
Uptake by tumor cells ([5]; SK-MEL-28, 0.25 h): 30.84 ± 17.2
Uptake by tumor cells ([5]; SK-MEL-28, 0.5 h): 35.56 ± 21.09
Uptake by tumor cells ([5]; SK-MEL-28, 1 h): 62.17 ± 11.20
Uptake by tumor cells ([5]; SK-MEL-28, 2 h): 558.48 ± 189.00
Uptake by tumor cells ([5]; SK-MEL-28, 4 h): 1210.74 ± 379.14
cell viability (MTT) [6]: decreasing the viability of RENCA by 1 μM
uptake by non-tumor cells [7]: uptake by these cells
overlap with endocytosis markers (dextran, CTxB, transferrin) ([8]; Alexa Fluor 555 labelled markers, shortest treatment time): the highest were with CTxB
co-localization with late endosomal markers ([8]; Lyso Tracker, LAMP-2): found in co-localization with late endosomal markers, Lyso Tracker and LAMP-2
co-localization with cav-1 ([8]; indirect immunofluorescence): occurred mainly after 4 hours of treatment
uptake after pretreatment with Na3VO4 ([9]; SK-MEL-28, Na3VO4 pretreatment, then 4 h): not affected
tumor cell penetration after pretreatment with Na3VO4 or Annexin V ([9]; pretreatment with Na3VO4 or Annexin V): retains its ability to penetrate tumor cells
cells positive for nuclear translocation ([10]; MIA PaCa-2): few cells were positive
Uptake by tumor cells ([10]; Mia PaCa-2, 0.25 h): 3.45 ± 1.34
Uptake by tumor cells ([10]; Mia PaCa-2, 0.5 h): 4.84 ± 1.95
Uptake by tumor cells ([10]; Mia PaCa-2, 1 h): 13.74 ± 7.15
Uptake by tumor cells ([10]; Mia PaCa-2, 2 h): 604.99 ± 24.47
Uptake by tumor cells ([10]; Mia PaCa-2, 4 h): 976.55 ± 74.55
cell viability (MTT) [11]: no change was observed

P4-Alexa 488: peptide P4 (SEQ ID No. 2) labeled with Alexa Fluor 488 (YAIGYSSKDYK; also: Alexa Fluor 488 label) [reference compound]
uptake by HUVECs (HCS) ([12]; 4 h): poorly detected
detection within HUVECs (HCS) [12]: not detected within cells

B1: P4-Cter-Alexa488: hybrid peptide P4-Cter (SEQ ID No. 3) labeled with Alexa Fluor 488 (conjugate)
chain: YAIGYSSKDYKEEQTHFHFESPKLISFKVQDYWILNDIMKKNLTGISLKSEEEDADSGEID
modifications: also: Alexa Fluor 488 label
uptake by HUVECs (HCS) ([12]; 1 h): efficiently absorbed
detection within HUVECs (HCS) [12]: captured and quantified
